Data: patent EP4311580A1, “AMINOACID-FLUORIDE SALTS FOR MOUTH HYGIENE” (Schäfer, Rolf, priority 2022, dated 2024)
Like-named read-outs stand apart in the source and are kept apart here.

What was measured:
[1] = test system: MG-63 osteoblast cells
[2] = test system: MG-63 osteoblast cells; test: Time to confluence of MG-63 osteoblast cells in tissue culture with fluoride compounds in the medium; conditions: for effect on osteoblast cells in culture (lysis / influence on growth / toxicity) / inhibition of cell growth: MG-63 osteoblasts; for effect on osteoblast cells in culture (lysis / influence on growth / toxicity): 1400ppm fluoride, result in words; for inhibition of cell growth: 1400ppm fluoride concentration, relative to control; for Time to confluence / Time to confluence (days): compounds at 1400ppm fluoride in cell growth media, 5x10cm tissue culture flasks, control without fluoride 4-5 days

Compound	effect on osteoblast cells in culture (lysis / influence on growth / toxicity) [2]	Time to confluence [2]	also measured
CCCCCCCCCCCCOS(=O)(=O)[O-].[Na+] [Sodium laurylsulfate (SDS), Sodium laurylsulfate, reference compound]	lysing (dissolving the membrane) osteoblast cells	–	Time to confluence (days) [1]: cell lysis
Decalysine-ε-ammonium-decafluoride	–	8 to 9 days	inhibition of cell growth [2]: 40-50%
CCOC(=O)[C@@H](N)Cc1c[nH]c2ccccc12 [Tryptophan-O-ethylester-N,N'-ammoniumdifluoride]	–	8 to 9 days	–
CCCCCCCCC=CCCCCCCCCN.F [Dectaflur, 9-octadecenylamine-hydrofluoride, reference compound]	lysing (dissolving the membrane) osteoblast cells	–	Time to confluence (days) [2]: cell lysis
CCCCCCCCCCCCCCCCCCN(CCO)CCCN(CCO)CCO [Olaflur, reference compound]	lysing (dissolving the membrane) osteoblast cells	–	Time to confluence (days) [2]: cell lysis
NCCCCC(N)C(=O)O (stereo not shown) [Lysine-ε-ammonium-fluoride]	no influence of growth on osteoblasts	–	Time to confluence [1]: 4 to 5 days; inhibition of cell growth [2]: no inhibition at all
Potassium fluoride [reference compound]	–	–	Time to confluence [1]: 6 to 7 days
CCOC(=O)[C@@H](N)Cc1ccc(O)cc1.F.N [Tyrosine-O-ethylester-ammoniumfluoride]	–	5 to 6 days	–
F.F.N.N.N[C@@H](Cc1c[nH]cn1)C(=O)O [Histidine-ammonium-difluoride]	–	7 to 8 days	–
sodium fluoride [reference compound]	–	–	inhibition of cell growth [2]: 20%
CCOC(=O)[C@H](C)N.F.N [Alanine-O-ethylester-ammoniumfluoride]	–	5 to 6 days	–
CCOC(=O)[C@@H](N)CCCCN [Lysine-O-ethylester-ε-ammoniumdifluoride]	–	–	Time to confluence [1]: 5 to 6 days
NC(Cc1c[nH]c2ccccc12)C(=O)O (stereo not shown) [Tryptophan-N-ammonium-mono-hydrofluoride]	–	5 to 6 days	–
